Data published in patent publication US20240245647A1, “ISOMEROHYDROLASE INHIBITOR FOR TREATMENT OF ATROPHIC FORM OF AGE-RELATED MACULAR DEGENERATION AND STARGARDT DISEASE” (The Trustees of Columbia University in the City of New York, priority 2021, published 2024).

Experiments:
[1] = Sequestration of all-trans-retinal (atRAL) in vitro; conditions: 100 μM compound, equimolar atRAL, 30 min
Description: Test compounds (100 μM) were incubated with equimolar amounts of all-trans-retinal for 30 min. The UV-vis spectra were collected and the concentration of all-trans-retinal was assessed based on the 370 nm absorbance. (FIG. 11A) Graph bars show mean atRAL levels normalized to DMSO; error bars show SD; one-way ANOVA with Holm-Sidak post-hoc test was used for statistical analysis; *P<0.05; ****P<0.0001.

[2] = system: VAP-1; assay: in vitro; conditions: male, Beagle, dog, plasma, pH 7.4
Description: (§1) Studies were carried out in mixed-gender human plasma (Lot #HMN330460) and male Beagle dog plasma (Lot #BGL118112), obtained from BioIVT and collected on sodium heparin. Plasma was adjusted to pH 7.4 prior to initiating the experiments. DMSO stocks were first prepared for the test articles. Aliquots of the DMSO solutions were dosed into 1 mL of plasma, which had been pre-warmed to 37° C., at a final test article concentration of 1 μM. The vials were kept in a benchtop Thermomixer® for the duration of the experiment. Aliquots (100 μL) were taken at each time point (0, 15, 30, 60, and 120 minutes) and added to 96-well plates, which had been pre-filled with 300 μL of acetonitrile (ACN). Samples were stored at 4° C. until the end of the experiment. After the final time point was sampled, the plate was mixed and then centrifuged at 3,000 rpm for 10 minutes. Aliquots of the supernatant were removed, diluted 1:1 into distilled water, and analyzed by LC-MS/MS. The peak area response ratio to internal standard (PARR) was compared to the PARR at time 0 to determine the percent of test article remaining at each time point. Half-lives were calculated using GraphPad software, fitting to a single-phase exponential decay equation.

[3] = biological target: T1, VAP-1 (Homo sapiens, UniProt Q16853); assay: in vitro; conditions: both, plasma, pH 7.4
T1 sequence (Q16853 29-763 limits assumed): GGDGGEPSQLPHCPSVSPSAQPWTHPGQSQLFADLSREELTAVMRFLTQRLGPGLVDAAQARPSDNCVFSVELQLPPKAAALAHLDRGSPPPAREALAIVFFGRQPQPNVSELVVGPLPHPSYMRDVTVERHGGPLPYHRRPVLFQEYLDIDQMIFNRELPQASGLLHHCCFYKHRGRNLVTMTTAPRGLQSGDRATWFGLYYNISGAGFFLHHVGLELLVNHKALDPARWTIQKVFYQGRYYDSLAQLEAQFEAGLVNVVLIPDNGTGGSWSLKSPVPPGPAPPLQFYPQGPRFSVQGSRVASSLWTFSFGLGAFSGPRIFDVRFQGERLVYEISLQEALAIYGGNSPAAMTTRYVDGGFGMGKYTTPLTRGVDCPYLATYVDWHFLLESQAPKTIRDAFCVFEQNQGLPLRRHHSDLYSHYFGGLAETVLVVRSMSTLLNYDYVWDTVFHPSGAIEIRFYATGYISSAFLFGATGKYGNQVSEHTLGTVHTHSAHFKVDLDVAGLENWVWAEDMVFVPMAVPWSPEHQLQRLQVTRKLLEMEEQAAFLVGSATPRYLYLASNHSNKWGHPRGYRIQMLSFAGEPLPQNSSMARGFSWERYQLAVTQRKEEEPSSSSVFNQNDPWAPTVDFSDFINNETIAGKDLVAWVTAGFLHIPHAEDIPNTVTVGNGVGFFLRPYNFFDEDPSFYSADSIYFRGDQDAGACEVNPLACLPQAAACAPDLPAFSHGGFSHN
Description: as §1

[4] = system: cGAS/STING signal pathway; assay: cGAS/STING pathway activation after LIRD (Western blot); format: in vivo, BALB/c mice; conditions: 2 mg/kg
Description: FIG. 8. Elevated protein levels of cGAS-STING pathway in BALB/c mice. The CGAS, STING and phosphorylated NF-κB (pp65). (FIGS. 8A-8C) Retinas were harvested and cGAS and STING protein levels were measured by Western blot analysis with β-actin as loading control and densitometry quantification. (FIGS. 8D-8E) Levels of phosphorylated NF-κB (p-NF-κB) were determined by Western blotting. Total NF-κB (p65) was used as an internal control and densitometry quantification. Each lane represents an individual mouse. (FIGS. 8F-8G) Photoreceptor cell apoptosis was evaluated by TUNEL on the retinal sections at the dose of 2 mg/kg in BALB/c mice and correlating quantitative analysis. Student's t-test was used (n=5, mean±SEM, *P<0.05, **<0.01).
To further evaluate the effect of RPE65-61 on retinal apoptosis, retinal sections from LIRD mice were used for Terminal deoxynucleotidyltransferase dUTP nick-end labeling (TUNEL) with the In Situ Cell Death Detection Kit (Millipore/sigma Cat #:11684795910). TUNEL-positive photoreceptor cells were quantified to evaluate the effects of RPE65-61 as described (Rajala, A. et al. 2018; Ma, H. et al. 2020).

- half-life at 1 μM [2]: 35.3 min
- half-life at 1 μM [3]: > 120 min
SMILES: N=S(=O)(CCN)c1cccc(OCC2CCCCC2)c1 (racemic) [RPE65-61, (±)-(2-aminoethyl) (3-(cyclohexylmethoxy)phenyl) (imino)-λ^6-sulfanone]
- atRAL reduction [1]: 80%
- activation of cGAS/STING signal pathway in RPE and photoreceptor cells [4]: protected RPE and photoreceptor cells from the activation of cGAS/STING signal pathway
